Test results from ChEMBL document CHEMBL1201862, “PubChem BioAssay data set” (2004).
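Tested at 5 concentrations; 48 h exposure; 96-well plates; endpoints linearly interpolated, else capped at highest concentration. GI50 = concentration required for 50% inhibition of growth.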 Calls of active or inactive are those of the source. Cut-off read from the data, not from the text of the source: active = GI50 up to about 1.1 µM and inactive = higher.

How the values were obtained:
Assay in all cases: growth of human tumour cells (NCI), 48 h
M14 = test system: M14
NCI-H23 = test system: NCI-H23
SF-539 = test system: SF-539
MDA-MB-231 = test system: MDA-MB-231
HOP-92 = test system: HOP-92
RPMI-8226 = test system: RPMI-8226
HT-29 = test system: HT-29
BT-549 = test system: BT-549
EKVX = test system: EKVX
NCI-H460 = test system: NCI-H460
786-0 = test system: 786-0
MDA-N = test system: MDA-N
UO-31 = test system: UO-31
RXF 393 = test system: RXF 393
HOP-62 = test system: HOP-62
T47D = test system: T47D
SN12C = test system: SN12C
NCI-H522 = test system: NCI-H522
SK-MEL-28 = test system: SK-MEL-28
A549 = test system: A549
PC-3 = test system: PC-3
MDA-MB-435 = test system: MDA-MB-435
SW-620 = test system: SW-620
OVCAR-4 = test system: OVCAR-4
HCC 2998 = test system: HCC 2998
SR = test system: SR
ACHN = test system: ACHN
SF-295 = test system: SF-295
CCRF-CEM = test system: CCRF-CEM
SK-MEL-2 = test system: SK-MEL-2
Hs-578T = test system: Hs-578T
HCT-15 = test system: HCT-15
A498 = test system: A498
OVCAR-5 = test system: OVCAR-5
SNB-75 = test system: SNB-75
DU-145 = test system: DU-145
IGROV-1 = test system: IGROV-1
OVCAR-3 = test system: OVCAR-3
KM12 = test system: KM12
K562 = test system: K562
NCI/ADR-RES = test system: NCI/ADR-RES
MOLT-4 = test system: MOLT-4
NCI-H226 = test system: NCI-H226
U-251 = test system: U-251
SNB-19 = test system: SNB-19
SK-OV-3 = test system: SK-OV-3
COLO 205 = test system: COLO 205
Malme-3M = test system: Malme-3M
OVCAR-8 = test system: OVCAR-8
HL-60 = test system: HL-60
HCT-116 = test system: HCT-116
UACC-257 = test system: UACC-257
CAKI-1 = test system: CAKI-1
SF-268 = test system: SF-268
UACC-62 = test system: UACC-62
SK-MEL-5 = test system: SK-MEL-5
MCF7 = test system: MCF7
TK-10 = test system: TK-10
LOX IMVI = test system: LOX IMVI

COC(=O)/C=C(/C(=O)OC)c1c(C)cc2c(C)cc(C)cc(C)c1-2
GI50 (M14): 8.28 µM (inactive) | GI50 (NCI-H23): 18.5 µM (inactive) | GI50 (SF-539): 9.12 µM (inactive) | GI50 (MDA-MB-231): 4.89 µM (inactive) | GI50 (HOP-92): 31.6 µM (inactive) | GI50 (RPMI-8226): 9.79 µM (inactive) | GI50 (HT-29): 7.41 µM (inactive) | GI50 (BT-549): 15 µM (inactive) | GI50 (EKVX): 32.1 µM (inactive) | GI50 (NCI-H460): 19.9 µM (inactive) | GI50 (786-0): 15.2 µM (inactive) | GI50 (MDA-N): 2.4 µM (inactive) | GI50 (UO-31): 23 µM (inactive) | GI50 (RXF 393): 18.8 µM (inactive) | GI50 (HOP-62): 9.14 µM (inactive) | GI50 (T47D): 44.1 µM (inactive) | GI50 (SN12C): 14.9 µM (inactive) | GI50 (NCI-H522): 7.48 µM (inactive) | GI50 (SK-MEL-28): 24.3 µM (inactive) | GI50 (A549): 14.9 µM (inactive) | GI50 (PC-3): 19 µM (inactive) | GI50 (MDA-MB-435): 2.77 µM (inactive) | GI50 (SW-620): 7.18 µM (inactive) | GI50 (OVCAR-4): 22.3 µM (inactive) | GI50 (HCC 2998): 16.4 µM (inactive) | GI50 (SR): 4.19 µM (inactive) | GI50 (ACHN): 20.4 µM (inactive) | GI50 (SF-295): 7.24 µM (inactive) | GI50 (CCRF-CEM): 9.18 µM (inactive) | GI50 (SK-MEL-2): 20 µM (inactive) | GI50 (Hs-578T): 11 µM (inactive) | GI50 (HCT-15): 4.56 µM | GI50 (A498): 26.4 µM (inactive) | GI50 (OVCAR-5): 18.9 µM (inactive) | GI50 (SNB-75): 16.7 µM (inactive) | GI50 (DU-145): 22.4 µM (inactive) | GI50 (IGROV-1): 23.3 µM (inactive) | GI50 (OVCAR-3): 10.2 µM (inactive) | GI50 (KM12): 5.11 µM (inactive) | GI50 (K562): 4.45 µM (inactive) | GI50 (NCI/ADR-RES): 9.33 µM (inactive) | GI50 (MOLT-4): 5.46 µM (inactive) | GI50 (NCI-H226): 21.1 µM (inactive) | GI50 (U-251): 8.26 µM (inactive) | GI50 (SNB-19): 9.89 µM (inactive) | GI50 (SK-OV-3): 21.5 µM (inactive) | GI50 (COLO 205): 7.24 µM (inactive) | GI50 (Malme-3M): 11.5 µM (inactive) | GI50 (OVCAR-8): 25.4 µM (inactive) | GI50 (HL-60): 4.13 µM (inactive) | GI50 (HCT-116): 4.26 µM (inactive) | GI50 (UACC-257): 19.3 µM (inactive) | GI50 (CAKI-1): 32.6 µM (inactive) | GI50 (SF-268): 19.1 µM (inactive) | GI50 (UACC-62): 9.77 µM (inactive) | GI50 (SK-MEL-5): 8.15 µM (inactive) | GI50 (MCF7): 4.1 µM (inactive) | GI50 (TK-10): 27.1 µM (inactive) | GI50 (LOX IMVI): 11.7 µM (inactive)

Cc1cc(S(=O)(=O)Nc2n[nH]c(-c3ccc(Cl)cc3)n2)c(SSc2cc(Cl)c(C)cc2S(=O)(=O)Nc2n[nH]c(-c3ccc(Cl)cc3)n2)cc1Cl
GI50 (M14): 39.9 µM (inactive) | GI50 (NCI-H23): 34.5 µM (inactive) | GI50 (SF-539): 40.8 µM (inactive) | GI50 (MDA-MB-231): 31.3 µM (inactive) | GI50 (HOP-92): 25.1 µM (inactive) | GI50 (RPMI-8226): 37.2 µM (inactive) | GI50 (HT-29): 23.6 µM (inactive) | GI50 (BT-549): 40.6 µM (inactive) | GI50 (EKVX): 32.5 µM (inactive) | GI50 (NCI-H460): 22.4 µM (inactive) | GI50 (786-0): 33.7 µM (inactive) | GI50 (MDA-N): 41.3 µM (inactive) | GI50 (UO-31): 29.4 µM (inactive) | GI50 (RXF 393): 25.1 µM (inactive) | GI50 (HOP-62): 54.5 µM (inactive) | GI50 (T47D): 14.6 µM (inactive) | GI50 (SN12C): 43.6 µM (inactive) | GI50 (NCI-H522): 32.2 µM (inactive) | GI50 (SK-MEL-28): 33 µM (inactive) | GI50 (A549): 41.5 µM (inactive) | GI50 (PC-3): 29.2 µM (inactive) | GI50 (MDA-MB-435): 31.7 µM (inactive) | GI50 (SW-620): 24.8 µM (inactive) | GI50 (OVCAR-4): 28.5 µM (inactive) | GI50 (HCC 2998): 19.6 µM (inactive) | GI50 (SR): 25.5 µM (inactive) | GI50 (ACHN): 32.1 µM (inactive) | GI50 (SF-295): 31.7 µM (inactive) | GI50 (CCRF-CEM): 25.9 µM (inactive) | GI50 (Hs-578T): 28.2 µM (inactive) | GI50 (HCT-15): 25.1 µM | GI50 (A498): 24.6 µM (inactive) | GI50 (OVCAR-5): 22 µM (inactive) | GI50 (SNB-75): 27.9 µM (inactive) | GI50 (DU-145): 32.1 µM (inactive) | GI50 (IGROV-1): 22 µM (inactive) | GI50 (OVCAR-3): 28.3 µM (inactive) | GI50 (KM12): 29.2 µM (inactive) | GI50 (K562): 27 µM (inactive) | GI50 (NCI/ADR-RES): 47.1 µM (inactive) | GI50 (MOLT-4): 25.8 µM (inactive) | GI50 (NCI-H226): 22.5 µM (inactive) | GI50 (U-251): 25.2 µM (inactive) | GI50 (SK-OV-3): 39.5 µM (inactive) | GI50 (COLO 205): 25.9 µM (inactive) | GI50 (Malme-3M): 46.3 µM (inactive) | GI50 (OVCAR-8): 34.4 µM (inactive) | GI50 (HL-60): 23.2 µM (inactive) | GI50 (HCT-116): 28.5 µM (inactive) | GI50 (UACC-257): 61.7 µM (inactive) | GI50 (CAKI-1): 34.2 µM (inactive) | GI50 (SF-268): 34.1 µM (inactive) | GI50 (UACC-62): 21.4 µM (inactive) | GI50 (SK-MEL-5): 33.2 µM (inactive) | GI50 (MCF7): 24.6 µM (inactive) | GI50 (TK-10): 58.3 µM (inactive) | GI50 (LOX IMVI): 26.2 µM (inactive)
